Results as given in patent US12077503B2, “Substituted cyclic amides and their use as herbicides” (FMC CORPORATION, priority 2015, dated 2024).

Columns and labels:
Type in all cases: in vivo
[1] = tested on: barnyardgrass (Echinochloa crus-galli); assay: Test A preemergence; settings: Echinochloa crus-galli, pre-emergence, 240 h, 0 to 100 scale where 0 is no effect and 100 is complete control, read-out: Barnyardgrass plant response rating
Procedure, shortened: (§1)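 Ratings of 0 (no effect) to 100 (complete control) come from visual comparison with untreated controls roughly 10 d after treatment. Test chemicals, formulated in a non-phytotoxic solvent mixture with surfactant, were applied either as a preemergence directed soil spray on seeded soil or postemergence to one- to two-leaf plants 2 to 10 cm tall.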

[2] = tested on: pigweed (Amaranthus retroflexus); assay: Test A preemergence; settings: Amaranthus retroflexus, pre-emergence, 240 h, 0 to 100 scale where 0 is no effect and 100 is complete control, read-out: Pigweed plant response rating
[3] = tested on: Kochia (Kochia scoparia); assay: Test A preemergence; settings: Bassia scoparia, pre-emergence, 240 h, 0 to 100 scale where 0 is no effect and 100 is complete control, read-out: Kochia plant response rating
Procedure, shortened: as §1

[4] = tested on: ryegrass, Italian (Italian ryegrass, Lolium multiflorum); assay: Test A preemergence; settings: Lolium multiflorum, pre-emergence, 240 h, 0 to 100 scale where 0 is no effect and 100 is complete control, read-out: Ryegrass, Italian plant response rating
Procedure, shortened: as §1

[5] = tested on: giant foxtail (Setaria faberii); assay: Test A preemergence; settings: Setaria faberi, pre-emergence, 240 h, 0 to 100 scale where 0 is no effect and 100 is complete control, read-out: Foxtail, Giant plant response rating
Procedure, shortened: as §1

[6] = tested on: ragweed (common ragweed, Ambrosia elatior); assay: Test A preemergence; settings: Ambrosia artemisiifolia, pre-emergence, 240 h, 0 to 100 scale where 0 is no effect and 100 is complete control, read-out: Ragweed plant response rating
Procedure, shortened: as §1

[7] = tested on: barnyardgrass (Echinochloa crus-galli); assay: Test A postemergence; settings: Echinochloa crus-galli, post-emergence, 240 h
Procedure, shortened: as §1

[8] = tested on: pigweed (Amaranthus retroflexus); assay: Test A postemergence; settings: Amaranthus retroflexus, post-emergence, 240 h
Procedure, shortened: as §1

[9] = tested on: corn (Zea mays); assay: Test A postemergence; settings: Zea mays, post-emergence, 240 h
Procedure, shortened: as §1

[10] = tested on: Kochia (Kochia scoparia); assay: Test A postemergence; settings: Bassia scoparia, post-emergence, 240 h
Procedure, shortened: as §1

[11] = tested on: Galium (catchweed bedstraw, Galium aparine); assay: Test A postemergence; settings: Galium, post-emergence, 240 h
Procedure, shortened: as §1

[12] = tested on: ryegrass, Italian (Italian ryegrass, Lolium multiflorum); assay: Test A postemergence; settings: Lolium multiflorum, post-emergence, 240 h
Procedure, shortened: as §1

[13] = tested on: wheat (Triticum aestivum); assay: Test A postemergence; settings: Triticum aestivum, post-emergence, 240 h
Procedure, shortened: as §1

[14] = tested on: blackgrass (Alopecurus myosuroides); assay: Test A postemergence; settings: Alopecurus myosuroides, post-emergence, 240 h
Procedure, shortened: as §1

[15] = tested on: giant foxtail (Setaria faberii); assay: Test A postemergence; settings: Setaria faberi, post-emergence, 240 h
Procedure, shortened: as §1

[16] = tested on: ragweed (common ragweed, Ambrosia elatior); assay: Test A postemergence; settings: Ambrosia artemisiifolia, post-emergence, 240 h
Procedure, shortened: as §1

[17] = tested on: sedge, umbrella (small-flower umbrella sedge, Cyperus difformis); assay: Test B flooded paddy test; settings: Cyperus difformis, 250 g ai/ha, Flood; 0 to 100 scale where 0 is no effect and 100 is complete control; read-out: Sedge, Umbrella plant response rating
Procedure, shortened: (§2)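 Visual ratings (0 none to 100 complete control) are relative to untreated plants, taken 13–15 d after treatment in a greenhouse. Test material went straight into floodwater standing 3 cm above the soil, kept constant, on plants at the 2-leaf stage.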

[18] = tested on: barnyardgrass (Echinochloa crus-galli); assay: Test B flooded paddy test; settings: Echinochloa crus-galli, 250 g ai/ha, Flood; 0 to 100 scale where 0 is no effect and 100 is complete control; read-out: Barnyardgrass plant response rating
Procedure, shortened: as §2

[19] = tested on: rice (Oryra sativa); assay: Test B flooded paddy test; settings: Oryza sativa, 250 g ai/ha, Flood; 0 to 100 scale where 0 is no effect and 100 is complete control; read-out: Rice plant response rating
Procedure, shortened: as §2

[20] = tested on: ducksalad (Heteranthera limosa); assay: Test B flooded paddy test; settings: Heteranthera limosa, 250 g ai/ha, Flood; 0 to 100 scale where 0 is no effect and 100 is complete control; read-out: Ducksalad plant response rating
Procedure, shortened: as §2

[21] = 125 g ai/ha, preemergence, approx. 10 d

CN1C[C@H](c2ccc(C(F)(F)F)nc2)[C@@](C)(C(=O)Nc2ccc(F)c(F)c2F)C1=O [Compound 1110]
pest or weed control at 31 g/ha ([1]; 31 g ai/ha, Preemergence): 90%
pest or weed control at 125 g/ha [1, 21]: 100%
pest or weed control at 31 g/ha ([2]; 31 g ai/ha, Preemergence): 60%
pest or weed control at 125 g/ha [2, 21]: 90%
pest or weed control at 31 g/ha ([3]; 31 g ai/ha, Preemergence): 0%
pest or weed control at 125 g/ha [3, 21]: 70%
pest or weed control at 31 g/ha ([4]; 31 g ai/ha, Preemergence): 30%
pest or weed control at 125 g/ha [4, 21]: 50%
pest or weed control at 31 g/ha ([5]; 31 g ai/ha, Preemergence): 90%
pest or weed control at 125 g/ha [5, 21]: 100%
pest or weed control at 31 g/ha ([6]; 31 g ai/ha, Preemergence): 0%
pest or weed control at 125 g/ha [6, 21]: 40%
pest or weed control at 125 g/ha ([7]; 125 g ai/ha, postemergence, visual injury on 0 to 100 scale (0 no effect, 100 complete control), approx. 10 d, read-out: Barnyardgrass plant response rating): 90%
pest or weed control at 31 g/ha ([7]; Postemergence, 31 g ai/ha, visual injury after approx. 10 d, 0 to 100 scale, 0 no effect, 100 complete control, read-out: Plant response rating, Barnyardgrass): 80%
pest or weed control at 125 g/ha ([8]; 125 g ai/ha, postemergence, visual injury on 0 to 100 scale (0 no effect, 100 complete control), approx. 10 d, read-out: Pigweed plant response rating): 50%
pest or weed control at 31 g/ha ([8]; Postemergence, 31 g ai/ha, visual injury after approx. 10 d, 0 to 100 scale, 0 no effect, 100 complete control, read-out: Plant response rating, Pigweed): 20%
plant injury at 125 g/ha ([9]; 125 g ai/ha, postemergence, visual injury on 0 to 100 scale (0 no effect, 100 complete control), approx. 10 d, read-out: Corn plant response rating): 80%
Corn plant response rating (crop injury, 0 = no effect, 100 = complete kill) at 31 g/ha ([9]; Postemergence, 31 g ai/ha, visual injury after approx. 10 d, 0 to 100 scale, 0 no effect, 100 complete control): 30%
pest or weed control at 125 g/ha ([10]; 125 g ai/ha, postemergence, visual injury on 0 to 100 scale (0 no effect, 100 complete control), approx. 10 d, read-out: Kochia plant response rating): 70%
pest or weed control at 31 g/ha ([10]; Postemergence, 31 g ai/ha, visual injury after approx. 10 d, 0 to 100 scale, 0 no effect, 100 complete control, read-out: Plant response rating, Kochia): 30%
pest or weed control at 125 g/ha ([11]; 125 g ai/ha, postemergence, visual injury on 0 to 100 scale (0 no effect, 100 complete control), approx. 10 d, read-out: Galium plant response rating): 50%
pest or weed control at 31 g/ha ([11]; Postemergence, 31 g ai/ha, visual injury after approx. 10 d, 0 to 100 scale, 0 no effect, 100 complete control, read-out: Plant response rating, Galium): 20%
pest or weed control at 125 g/ha ([12]; 125 g ai/ha, postemergence, visual injury on 0 to 100 scale (0 no effect, 100 complete control), approx. 10 d, read-out: Ryegrass, Italian plant response rating): 60%
pest or weed control at 31 g/ha ([12]; Postemergence, 31 g ai/ha, visual injury after approx. 10 d, 0 to 100 scale, 0 no effect, 100 complete control, read-out: Plant response rating, Ryegrass, Italian): 40%
plant injury at 125 g/ha ([13]; 125 g ai/ha, postemergence, visual injury on 0 to 100 scale (0 no effect, 100 complete control), approx. 10 d, read-out: Wheat plant response rating): 70%
plant injury at 31 g/ha ([13]; Postemergence, 31 g ai/ha, visual injury after approx. 10 d, 0 to 100 scale, 0 no effect, 100 complete control, read-out: Plant response rating, Wheat): 30%
pest or weed control at 125 g/ha ([14]; 125 g ai/ha, postemergence, visual injury on 0 to 100 scale (0 no effect, 100 complete control), approx. 10 d, read-out: Blackgrass plant response rating): 60%
pest or weed control at 31 g/ha ([14]; Postemergence, 31 g ai/ha, visual injury after approx. 10 d, 0 to 100 scale, 0 no effect, 100 complete control, read-out: Plant response rating, Blackgrass): 0%
pest or weed control at 125 g/ha ([15]; 125 g ai/ha, postemergence, visual injury on 0 to 100 scale (0 no effect, 100 complete control), approx. 10 d, read-out: Foxtail, Giant plant response rating): 90%
pest or weed control at 31 g/ha ([15]; Postemergence, 31 g ai/ha, visual injury after approx. 10 d, 0 to 100 scale, 0 no effect, 100 complete control, read-out: Plant response rating, Foxtail, Giant): 60%
pest or weed control at 125 g/ha ([16]; 125 g ai/ha, postemergence, visual injury on 0 to 100 scale (0 no effect, 100 complete control), approx. 10 d, read-out: Ragweed plant response rating): 30%
pest or weed control at 31 g/ha ([16]; Postemergence, 31 g ai/ha, visual injury after approx. 10 d, 0 to 100 scale, 0 no effect, 100 complete control, read-out: Plant response rating, Ragweed): 0%
pest or weed control at 250 g/ha [17]: 0%
pest or weed control at 250 g/ha [18]: 90%
pest or weed control at 250 g/ha [19]: 50%
pest or weed control at 250 g/ha [20]: 100%
